“And” between values parts separate entries of the source, which are not always exact repeats. Equal entries are not always repeated.
Test: clinical
Assay type: in vivo, human (female subjects)
Text: This trial investigated the feasibility of pulsed intra-vaginal delivery of oxybutynin and explored systemic exposure after application via the MedRing device.
The trial included female subjects of childbearing potential (women of childbearing potential, WOCBP) aged between 18 and 45 years (inclusive) and female postmenopausal subjects aged between 50 and 69 years (inclusive); Postmenopausal status is defined as age≥50 years and having >12 months amenorrhoea in the absence of hormonal therapy that may cause amenorrhoea.
Subjects began a 4-hour pre-dose fasting period before arriving to the clinic until 2 hours post-dose. Upon arrival, the subjects underwent pre-dose measurements to re-confirm eligibility for the study and to perform baseline measurements. The MedRing was inserted intra-vaginally by medically trained personnel. Water was allowed ad libitum. Subjects underwent blood sampling throughout the day. The MedRing was removed by medical study personnel 2 hours post dose in the first cohort. The MedRing was removed by medical personnel 6 hours post dose in the second cohort. The subjects went home approximately 8 hours post dose. The following day, the subjects of the second cohort returned to the clinic for an ambulant blood sample.
Plasma samples were also used for assessment of the concentrations of the metabolite, N-desethyloxybutynin.

AUC(0-inf) (female, human, in vivo, 3 mg)	Cmax (female, human, in vivo, 3 mg)	Tmax (female, human, in vivo, 3 mg)	half-life (female, human, in vivo, 3 mg)	t1/2, mean (±SD) (female, human, in vivo, 3 mg)	tmax, median (min-max) (female, human, in vivo, 3 mg)	plasma levels after 22 hours (female, human, in vivo, 22 h)	Compound	Area under the concentration-time curve to infinity (AUCinf) in plasma, mean (±SD) (3 mg oxybutynin HCl intravaginal via MedRing)	t1/2, mean (±SD) (3 mg oxybutynin HCl intravaginal via MedRing, plasma)	tmax, median (min-max) (3 mg oxybutynin HCl intravaginal via MedRing, post dose, plasma)	Cmax in plasma, mean (±standard deviation) (3 mg oxybutynin HCl intravaginal via MedRing, single dose, 8 female subjects)	plasma concentrations relative to known safety window (intravaginal via MedRing)	plasma levels after 22 hours (second cohort (MedRing in situ 6 hours), 22-hour sample)
34.9 ng·h/mL	5.4 ng/mL	2 h	8.5 h	8.5 (±3.5) hours	2 (1-5) hours	found in all 4 subjects	CCN(CC)CC#CCOC(=O)C(O)(c1ccccc1)C1CCCCC1 (stereo not shown) [oxybutynin]	–	–	–	–	–	–
–	–	–	–	–	–	–	CCNCC#CCOC(=O)C(O)(c1ccccc1)C1CCCCC1 (stereo not shown) [N-desethyloxybutynin]	51.1 (±43.1)	7.7 h	4 hours and 4 (3-5) hours	3.9 ng/mL	well within the known safety window	found in all 4 subjects

— patent US20240075005A1 (LIGALLI BV, priority 2021, published 2024)
